The source of these data is PMC5466349 (Pharmacotherapy, 2014).

Each structure is given as a SMILES string.

The data set can be described thus: clinical. The settings on record: human, in vivo; for half-life: T ½; for half-life / Tmax: geometric mean (90% CI), post-ginseng.

For `Cc1cccc(C)c1OCC(=O)N[C@@H](Cc1ccccc1)[C@@H](O)C[C@H](Cc1ccccc1)NC(=O)[C@H](C(C)C)N1CCCNC1=O` [Lopinavir, lopinavir], the “Cl/Fss geometric mean ratio (90% CI), post-ginseng/pre-ginseng” value is on record as 1.05 (0.94–1.17); the “T ½ geometric mean ratio (90% CI), post-ginseng/pre-ginseng” value is reported as 1.19 (0.92–1.46); the half-life – broadly, how long it takes for the measured level to halve – was 10 h; the Tmax (as a rule, the time at which the peak concentration occurs) came to 2.5 h.

As for `CC(C)c1nc(CN(C)C(=O)N[C@H](C(=O)N[C@@H](Cc2ccccc2)C[C@H](O)[C@H](Cc2ccccc2)NC(=O)OCc2cncs2)C(C)C)cs1` [Ritonavir, ritonavir], the half-life is 7.71 h and the Tmax was determined as 2.7 h.
